Measurements taken from patent US20250214951A1, “3-PHENYLISOXAZOLE DERIVATIVE, AND PHARMACEUTICAL COMPOSITION FOR PREVENTING OR TREATING EYE DISEASE, CONTAINING SAME AS ACTIVE INGREDIENT” (VASTHERA CO., LTD., priority 2022, published 2025).

Columns and labels:
[1] = tested on: A2E-BDP present in human retinal pigment epithelial cells (ARPE-19); assay: Screening of ability to remove A2E-fluorescent labeling substance (A2E-BDP), lysate fluorescence; type: cell-based; settings: ARPE-19, 24 h, ARPE-19 loaded with 10 μM A2E-BDP 24 h, test compound 50 μM once, fluorescence ex 485/em 535 nm, read-out: Capacity (%) to remove A2E-BDP at 50 μM
Protocol: The human retinal pigment epithelial cell line (ARPE-19) used in the experiment was provided by ATCC (American Type Culture Collection). The ARPE-19 cell line was cultured in DMEM medium containing 10% FBS. After culture, the cells were dispensed into 96-well plates at a concentration of 4×10^3 cells/well and cultured for 24 hours. The ARPE-19 cell line was treated with A2E-fluorescent labeling substance (A2E-BDP) at a concentration of 10 μM for 24 hours to induce the accumulation of A2E-BDP in the ARPE-19 cell line.
In order to evaluate the intracellular A2E removal ability of the compound of the present invention, an easily detectable A2E-fluorescent labeling substance (A2E-BDP) was used. The ARPE-19 cells prepared by the above method were treated with each test compound at a concentration of 50 μM once, and then cultured for 24 hours. The cells were lysed by adding a cell lysis buffer containing a protease inhibitor (50 mM Tris-chloride, pH 8.0, 150 mM sodium chloride, 1% NP-40, 1% sodium deoxycholate, 1% sodium dodecyl sulfate, and 2 mM ethylenediamine tetraacetic acid) to each 96-well. The prepared cell lysate was transferred to a white 96-well plate, and the fluorescence intensity was measured using a fluorescence microplate reader (VICTOR™ X3, Perkin Elmer, USA) (excitation 485 nm, emission 535 nm).

LC3-II [2] = assay: LC3-II production capacity at 10 μM (Table 4); type: cell-based; settings: Homo sapiens, 12 h
Protocol: (§1) ARPE-19 was dispensed into a 6-well plate at a concentration of 1×10^5 cells/well and cultured for 24 hours. Then, cells were treated with example 17 compound of the present invention at concentrations of 10, 25, and 50 μM for 12 hours. Then, a cell lysis buffer containing a protease inhibitor was added to prepare a cell lysate. The LC3-II level was measured by Western immunoblotting using an anti-LC3-II antibody (Cell Signaling Technology, MA, USA). As an internal control, an antibody against β-actin (Cell Signaling Technology) was used and measured by Western immunoblotting in the same manner as above, and is shown in FIG. 6 (upper graph).
(§2) The autophagy activation effect of example compounds expected to have autophagy activation ability and low cytotoxicity among the example compounds in Table 2 above in human retinal pigment epithelial cells was evaluated according to Experimental Example 7. That is, the autophagy activation effect through the increase of LC3-II was evaluated in a concentration-dependent manner, and the results are shown in FIGS. 15 and 16.

LC3-II [3] = assay: Concentration-dependent autophagy activation through increase of LC3-II (FIGS. 15 and 16); type: cell-based, human
Protocol: as §1, §2

| SMILES | inhibition at 50 µM [1] [%] | fold induction at 10 µM (LC3-II [2]) | autophagy activation effect through the increase of LC3-II (LC3-II [3]) |
| --- | --- | --- | --- |
| CCCc1cc(-c2cc(Br)ccc2OC)no1 [Example 1, 3-(5-bromo-2-methoxyphenyl)-5-propylisoxazole] | 20.8 | – | – |
| CCCc1cc(-c2cc(Br)ccc2O)no1 [Example 2, 4-bromo-2-(5-propylisoxazole-3-yl)phenol] | 28.2 | – | – |
| CCCc1ccc(OC)c(-c2cc(CCC)on2)c1 [Example 3, 3-(2-methoxy-5-propylphenyl)-5-propylisoxazole] | 0.6 | – | – |
| C=CCc1ccc(OC)c(-c2cc(CCC)on2)c1 [Example 4, 3-(5-allyl-2-methoxyphenyl)-5-propylisoxazole] | 24.7 | – | – |
| C=CCc1ccc(O)c(-c2cc(CCC)on2)c1 [Example 5, 4-allyl-2-(5-propylisoxazole-3-yl)phenol] | 26.9 | – | – |
| CCCc1ccc(O)c(-c2cc(CCC)on2)c1 [Example 6, 4-propyl-2-(5-propylisoxazole-3-yl)phenol] | 24 | – | – |
| COc1ccc(Br)cc1-c1cc(CO)on1 [Example 7, (3-(5-bromo-2-methoxyphenyl)isoxazole-5-yl)methanol] | 16.6 | – | – |
| OCc1cc(-c2cc(Br)ccc2O)no1 [Example 8, 4-bromo-2-(5-(hydroxymethyl)isoxazole-3-yl)phenol] | -15.3 | – | – |
| C=CCOCc1cc(-c2cc(Br)ccc2OC)no1 [Example 9, 5-((allyloxy)methyl)-3-(5-bromo-2-methoxyphenyl)isoxazole] | 26.2 | – | – |
| CCCc1ccc(OC)c(-c2cc(CO)on2)c1 [Example 10, (3-(2-methoxy-5-propylphenyl)isoxazole-5-yl)methanol] | 7.7 | – | – |
| CCOC(=O)COCc1cc(-c2cc(Br)ccc2OC)no1 [Example 12, ethyl 2-((3-(5-bromo-2-methoxyphenyl)isoxazole-5-yl)methoxy)acetate] | 21.7 | – | – |
| COCc1cc(-c2cc(Br)ccc2OC)no1 [Example 13, 3-(5-bromo-2-methoxyphenyl)-5-(methoxymethyl)isoxazole] | 31 | – | – |
| CCCc1ccc(O)c(-c2cc(CO)on2)c1 [Example 14, 2-(5-(hydroxymethyl)isoxazole-3-yl)-4-propylphenol] | 35.2 | – | – |
| C=CCc1ccc(OC)c(-c2cc(CO)on2)c1 [Example 15, (3-(5-allyl-2-methoxyphenyl)isoxazole-5-yl)methanol] | 48.1 | – | – |
| C=CCc1ccc(O)c(-c2cc(CO)on2)c1 [Example 16, 4-allyl-2-(5-(hydroxymethyl)isoxazole-3-yl)phenol] | 49.9 | – | – |
| C=CCc1ccc(OC)c(-c2cc(COCC(=O)OCC)on2)c1 [Example 19, ethyl 2-((3-(5-allyl-2-methoxyphenyl)isoxazole-5-yl)methoxy)acetate] | 37.4 | – | – |
| CCCc1ccc(OC)c(-c2cc(COC)on2)c1 [Example 20, 3-(2-methoxy-5-propylphenyl)-5-(methoxymethyl)isoxazole] | 17.2 | – | – |
| C=CCc1ccc(OC)c(-c2cc(CN3CCN(CC=C)CC3)on2)c1 [Example 22, 3-(5-allyl-2-methoxyphenyl)-5-((4-allylpiperazine-1-yl)methyl)isoxazole] | 47.4 | – | – |
| C=CCc1ccc(OC)c(-c2cc(CN3CCN(Cc4ccccc4)CC3)on2)c1 [Example 23, 3-(5-allyl-2-methoxyphenyl)-5-((4-benzylpiperazine-1-yl)methyl)isoxazole] | 45.5 | – | – |
| C=CCc1ccc(OC)c(-c2cc(CN3CCN(CC(=O)OCC)CC3)on2)c1 [Example 24, ethyl 2-(4-((3-(5-allyl-2-methoxyphenyl)isoxazole-5-yl)methyl)piperazine-1-yl)acetate] | 38.5 | – | – |
| C=CCc1ccc(OC)c(-c2cc(CN3CCN(C(=O)OC(C)(C)C)CC3)on2)c1 [Example 25, tert-butyl 4-((3-(5-allyl-2-methoxyphenyl)isoxazole-5-yl)methyl)piperazine-1-carboxylate] | 45.9 | – | – |
| COc1ccc(Br)cc1-c1cc(CN2CCNCC2)on1 [Example 28, 3-(5-bromo-2-methoxyphenyl)-5-(piperazine-1-ylmethyl)isoxazole] | – | 4.6 | excellent autophagy activation effects |
| CCCc1ccc(OC)c(-c2cc(CN3CCNCC3)on2)c1 [Example 30, 3-(2-methoxy-5-propylphenyl)-5-(piperazine-1-ylmethyl)isoxazole] | – | 2.3 | excellent autophagy activation effects |
| COc1ccc(C(F)(F)F)cc1-c1cc(CN2CCNCC2)on1 [Example 34, 3-(2-methoxy-5-(trifluoromethyl)phenyl)-5-(piperazine-1-ylmethyl)isoxazole] | – | 2.5 | excellent autophagy activation effects |
| C=CCc1ccc(OC)c(-c2cc(CN3CCN(C)CC3)on2)c1 [Example 41, 3-(5-allyl-2-methoxyphenyl)-5-((4-methylpiperazine-1-yl)methyl)isoxazole] | – | 2.3 | excellent autophagy activation effects |
| CCCc1ccc(OC)c(-c2cc(CN3CCN(C)CC3)on2)c1 [Example 42, 3-(2-methoxy-5-propylphenyl)-5-((4-methylpiperazine-1-yl)methyl)isoxazole] | – | 2.3 | excellent autophagy activation effects |
| COc1ccc(C(C)C)cc1-c1cc(CN2CCNCC2)on1 [Example 47, 3-(5-isopropyl-2-methoxyphenyl)-5-(piperazine-1-ylmethyl)isoxazole] | – | 2.7 | excellent autophagy activation effects |
| CCCc1cc(-c2cc(CN3CCNCC3)on2)c(OC)cc1F [Example 58, 3-(4-fluoro-2-methoxy-5-propylphenyl)-5-(piperazine-1-ylmethyl)isoxazole] | – | 3.2 | excellent autophagy activation effects |
| CCCc1cc(-c2cc(CN3CCN(C)CC3)on2)c(OC)cc1F [Example 59, 3-(4-fluoro-2-methoxy-5-propylphenyl)-5-((4-methylpiperazine-1-yl)methyl)isoxazole] | – | 3.1 | excellent autophagy activation effects |
| CCCc1ccc(OC(F)(F)F)c(-c2cc(CN3CCN(C)CC3)on2)c1 [Example 60, 5-((4-methylpiperazine-1-yl)methyl)-3-(5-propyl-2-(trifluoromethoxy)phenyl)isoxazole] | – | 3.1 | excellent autophagy activation effects |
